These results are taken from US9320759B2, “Methods and compositions for treating, reducing or preventing deterioration of the visual system of animals” (Nestec S.A, priority 2011, dated 2016).

Assay [1] has as its system TUNEL-positive cells in the ischemic boundary cortex. The experiment in a line: TUNEL staining and cell death quantification after transient middle cerebral artery occlusion. Type of assay: in vivo, rat. The following applies: OVX female rats, 4 weeks diet (E2 1 week), 1 hour MCA occlusion, 24 hours reperfusion. The protocol: Young adult (2 to 3 months old) female Charles River rats were ovariectomized (OVX) and fed one of 5 compositions for 4 weeks or treated with estradiol (E2) as a positive control for one week. The animal groups and respective compositions were: At the end of the 4 weeks of feeding (or 1 week of E2 treatment), the animals were subjected to a transient (1 hour) middle cerebral artery occlusion followed by reperfusion for 24 hours to mimic one of the main causes of neuron loss. Then, the animals were euthanized for determination of brain lesion volume and subsequent terminal deoxynucleotidyl transferase dUTP nick end labeling (TUNEL) staining to evaluate apoptosis in and around brain lesions. TUNEL staining was conducted on the same tissue used for assessment of lesion volume in Example 2. Brain slices were post-fixed in 4% formalin for later sectioning for subsequent staining for TUNEL positive neurons. DNA fragmentation was detected by a TUNEL method using a Dead END fluorescent kit (Promega, Madison, Wis.) according to the manufacturer's instruction. […] Within these boundaries, optical dissectors were systematically randomly sampled and the number of positive cells, together with DAPI labeled nuclear counter-stain in each optical section is counted. […] The data were expressed as the percentage of DAPI nuclear counter-stained cells.

Assay [2] deals with brain lesion (infarcted area) after middle cerebral artery occlusion. The experiment in a line: TTC staining, brain lesion volume after transient middle cerebral artery occlusion. Type of assay: in vivo, rat. The note with it: OVX female rats, 4 weeks diet (E2 1 week), 1 hour MCA occlusion, 24 hours reperfusion.
Experimental: Young adult (2 to 3 months old) female Charles River rats were ovariectomized (OVX) and fed one of 5 compositions for 4 weeks or treated with estradiol (E2) as a positive control for one week. The animal groups and respective compositions were: At the end of the 4 weeks of feeding (or 1 week of E2 treatment), the animals were subjected to a transient (1 hour) middle cerebral artery occlusion followed by reperfusion for 24 hours to mimic one of the main causes of neuron loss. […] Photographs were taken with a digital camera. The digital images of each brain section were used to calculate lesion volume for the infracted area of the brain.

In the case of `C[C@]12CC[C@@H]3c4ccc(O)cc4CC[C@H]3[C@@H]1CC[C@@H]2O` [17β-Estradiol], the “TUNEL Staining Value (TUNEL-positive cells normalized to the total number of cells by DAPI stain)” value in assay [1] was 37.69 percentage of DAPI nuclear counter-stained cells. The “Lesion Volume Value” in assay [2] was 147.41.
